{"source": "PubChem BioAssay (NCI)", "test_in_all_cases": "DTP human tumour cell line panel, 48 h", "key": {"[1]": {"tested_on": "NCI-H522 lung"}, "[2]": {"tested_on": "CAKI-1 renal"}, "[3]": {"tested_on": "NCI-H226 lung"}, "[4]": {"tested_on": "LXFL 529 NSCLC"}, "[5]": {"tested_on": "COLO 205 colon"}, "[6]": {"tested_on": "HT29 colon"}, "[7]": {"tested_on": "786-0 renal"}, "[8]": {"tested_on": "M19-MEL melanoma"}, "[9]": {"tested_on": "HOP-18 NSCLC"}, "[10]": {"tested_on": "IGROV1 ovarian"}, "[11]": {"tested_on": "SF-539 CNS"}, "[12]": {"tested_on": "DLD-1 colon"}}, "note": "Several values for one entry are separate records, joined by “and”; a condition that tells them apart may be missing. Identical values can stand only once.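 Cells were grown in 96-well plates and exposed to each compound for 48 hours at five concentrations; endpoints were interpolated linearly between bracketing concentrations, or set to the highest concentration if not reached. Here, GI50 denotes the concentration required for 50% inhibition of growth. TGI: total growth inhibition.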", "data": [{"smiles": "C=C(C)C1Cc2c(cc(OC)c3c(=O)c4ccccc4n(C)c23)O1", "note": "(configuration not stated)", "values": [{"measurement": "TGI", "setting": "[1]", "value": 34.3, "unit": "µM"}, {"measurement": "TGI", "setting": "[2]", "value": "> 100", "unit": "µM"}, {"measurement": "TGI", "setting": "[3]", "value": "> 100", "unit": "µM"}, {"measurement": "TGI", "setting": "[4]", "value": "> 100", "unit": "µM"}, {"measurement": "TGI", "setting": "[5]", "value": "> 100", "unit": "µM"}, {"measurement": "TGI", "setting": "[6]", "value": "> 100", "unit": "µM"}, {"measurement": "TGI", "setting": "[7]", "value": "> 100", "unit": "µM"}, {"measurement": "TGI", "setting": "[8]", "value": "> 100", "unit": "µM"}, {"measurement": "TGI", "setting": "[9]", "value": "> 100", "unit": "µM"}, {"measurement": "TGI", "setting": "[10]", "value": "> 100", "unit": "µM"}, {"measurement": "TGI", "setting": "[11]", "value": "> 100", "unit": "µM"}, {"measurement": "TGI", "setting": "[12]", "value": "> 100", "unit": "µM"}]}, {"smiles": "O=C1NC2(NC(=O)C1=O)Nc1ccccc1S2", "values": [{"measurement": "TGI", "setting": "[1]", "value": 50, "unit": "µM"}, {"measurement": "TGI", "setting": "[2]", "value": "> 100", "unit": "µM"}, {"measurement": "TGI", "setting": "[3]", "value": "> 100", "unit": "µM"}, {"measurement": "TGI", "setting": "[4]", "value": "> 87.3", "unit": "µM"}, {"measurement": "TGI", "setting": "[5]", "value": "> 54.9", "unit": "µM"}, {"measurement": "TGI", "setting": "[6]", "value": "> 100", "unit": "µM"}, {"measurement": "TGI", "setting": "[7]", "value": 48.6, "unit": "µM"}, {"measurement": "TGI", "setting": "[9]", "value": "> 100", "unit": "µM"}, {"measurement": "TGI", "setting": "[10]", "value": "> 100", "unit": "µM"}, {"measurement": "TGI", "setting": "[11]", "value": 62.7, "unit": "µM"}, {"measurement": "TGI", "setting": "[12]", "value": "> 67.5", "unit": "µM"}]}, {"smiles": "O=NN(CCCl)C(=O)Nc1ccc(Cl)c(Cl)c1", "values": [{"measurement": "TGI", "setting": "[1]", "value": "> 89.5", "unit": "µM"}, {"measurement": "TGI", "setting": "[2]", "value": "> 100", "unit": "µM"}, {"measurement": "TGI", "setting": "[3]", "value": "> 100", "unit": "µM"}, {"measurement": "TGI", "setting": "[5]", "value": "> 100", "unit": "µM"}, {"measurement": "TGI", "setting": "[6]", "value": "> 100", "unit": "µM"}, {"measurement": "TGI", "setting": "[8]", "value": "> 100", "unit": "µM"}, {"measurement": "TGI", "setting": "[9]", "value": "> 26.2", "unit": "µM"}, {"measurement": "TGI", "setting": "[10]", "value": "> 100", "unit": "µM"}, {"measurement": "TGI", "setting": "[11]", "value": "> 100", "unit": "µM"}, {"measurement": "TGI", "setting": "[12]", "value": "> 100", "unit": "µM"}]}, {"smiles": "COc1cccc2c1C(=O)c1c(O)c3c(c(O)c1C2=O)C[C@@](O)(C(C)=O)C[C@@H]3OC1CC(N(C)C)C(O)C(C)O1", "note": "(some centres not stated)", "values": [{"measurement": "GI50", "setting": "[1]", "value": "0.036 µM and 0.021 µM"}, {"measurement": "TGI", "setting": "[2]", "value": "0.56 µM and 0.593 µM"}, {"measurement": "GI50", "setting": "[3]", "value": 0.00108, "unit": "µM"}, {"measurement": "TGI", "setting": "[4]", "value": 1, "unit": "µM"}, {"measurement": "GI50", "setting": "[5]", "value": 0.0133, "unit": "µM"}, {"measurement": "GI50", "setting": "[6]", "value": 0.00516, "unit": "µM"}, {"measurement": "TGI", "setting": "[6]", "value": 5.91, "unit": "µM"}, {"measurement": "TGI", "setting": "[7]", "value": 1.36, "unit": "µM"}, {"measurement": "TGI", "setting": "[8]", "value": "0.292 µM and 0.039 µM"}, {"measurement": "TGI", "setting": "[9]", "value": "0.585 µM and 2.17 µM"}, {"measurement": "GI50", "setting": "[10]", "value": "0.0218 µM and < 0.0111 µM"}, {"measurement": "GI50", "setting": "[11]", "value": 0.0173, "unit": "µM"}, {"measurement": "TGI", "setting": "[12]", "value": "3.34 µM and 0.705 µM"}]}, {"smiles": "C=CC(Br)(CBr)CCC(Br)C(C)(C)Br", "note": "(configuration not stated)", "values": [{"measurement": "TGI", "setting": "[1]", "value": 30.1, "unit": "µM"}, {"measurement": "TGI", "setting": "[2]", "value": 37.4, "unit": "µM"}, {"measurement": "TGI", "setting": "[3]", "value": 32.8, "unit": "µM"}, {"measurement": "TGI", "setting": "[4]", "value": 27.7, "unit": "µM"}, {"measurement": "TGI", "setting": "[5]", "value": 28.8, "unit": "µM"}, {"measurement": "TGI", "setting": "[6]", "value": 26.8, "unit": "µM"}, {"measurement": "TGI", "setting": "[7]", "value": 25.6, "unit": "µM"}, {"measurement": "TGI", "setting": "[8]", "value": 27.4, "unit": "µM"}, {"measurement": "TGI", "setting": "[9]", "value": 28.9, "unit": "µM"}, {"measurement": "TGI", "setting": "[10]", "value": 28.5, "unit": "µM"}, {"measurement": "TGI", "setting": "[11]", "value": 29.9, "unit": "µM"}, {"measurement": "TGI", "setting": "[12]", "value": 33.4, "unit": "µM"}]}, {"smiles": "Cc1ccc([S+](c2ccccc2)c2cc(C)ccc2C)cc1", "note": "(configuration not stated)", "values": [{"measurement": "TGI", "setting": "[1]", "value": 28.2, "unit": "µM"}, {"measurement": "TGI", "setting": "[2]", "value": "> 100", "unit": "µM"}, {"measurement": "TGI", "setting": "[5]", "value": 61.2, "unit": "µM"}, {"measurement": "TGI", "setting": "[7]", "value": "> 100", "unit": "µM"}, {"measurement": "TGI", "setting": "[8]", "value": "> 100", "unit": "µM"}, {"measurement": "TGI", "setting": "[9]", "value": 26.4, "unit": "µM"}, {"measurement": "TGI", "setting": "[10]", "value": 25.3, "unit": "µM"}, {"measurement": "TGI", "setting": "[11]", "value": "> 100", "unit": "µM"}, {"measurement": "TGI", "setting": "[12]", "value": 19.1, "unit": "µM"}]}]}
